PubChem BioAssay (NCI)
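Cultured in 96-well plates, cells were exposed to test compound for 48 hours across five concentrations. TGI denotes the concentration required for complete inhibition of growth.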

Tests used:
Test in all cases: NCI anticancer screen, dose series, 48 h
786-0 renal = test system: 786-0 renal
A498 renal = test system: A498 renal
A549 NSCLC = test system: A549 NSCLC
ACHN renal = test system: ACHN renal
BT-549 breast = test system: BT-549 breast
CAKI-1 renal = test system: CAKI-1 renal
CCRF-CEM leukemia = test system: CCRF-CEM leukemia
COLO 205 colon = test system: COLO 205 colon
DU-145 prostate = test system: DU-145 prostate
EKVX NSCLC = test system: EKVX NSCLC
HCC-2998 colon = test system: HCC-2998 colon
HCT-116 colon = test system: HCT-116 colon
HCT-15 colon = test system: HCT-15 colon
HL-60(TB) leukemia = test system: HL-60(TB) leukemia
HOP-62 NSCLC = test system: HOP-62 NSCLC
HOP-92 NSCLC = test system: HOP-92 NSCLC
HS 578T breast = test system: HS 578T breast
HT29 colon = test system: HT29 colon
IGROV1 ovarian = test system: IGROV1 ovarian
K-562 leukemia = test system: K-562 leukemia
KM12 colon = test system: KM12 colon
LOX IMVI melanoma = test system: LOX IMVI melanoma
M14 melanoma = test system: M14 melanoma
MALME-3M melanoma = test system: MALME-3M melanoma
MCF7 breast = test system: MCF7 breast
MDA-MB-231 breast = test system: MDA-MB-231 breast
MDA-MB-435 = test system: MDA-MB-435
MDA-N = test system: MDA-N
MOLT-4 leukemia = test system: MOLT-4 leukemia
NCI-H226 lung = test system: NCI-H226 lung
NCI-H23 lung = test system: NCI-H23 lung
NCI-H460 lung = test system: NCI-H460 lung
NCI-H522 lung = test system: NCI-H522 lung
NCI/ADR-RES ovarian = test system: NCI/ADR-RES ovarian
OVCAR-3 ovarian = test system: OVCAR-3 ovarian
OVCAR-4 ovarian = test system: OVCAR-4 ovarian
OVCAR-5 ovarian = test system: OVCAR-5 ovarian
OVCAR-8 ovarian = test system: OVCAR-8 ovarian
PC-3 prostate = test system: PC-3 prostate
RPMI-8226 leukemia = test system: RPMI-8226 leukemia
RXF 393 renal = test system: RXF 393 renal
SF-268 CNS = test system: SF-268 CNS
SF-295 CNS = test system: SF-295 CNS
SF-539 CNS = test system: SF-539 CNS
SK-MEL-2 melanoma = test system: SK-MEL-2 melanoma
SK-MEL-28 melanoma = test system: SK-MEL-28 melanoma
SK-MEL-5 melanoma = test system: SK-MEL-5 melanoma
SK-OV-3 ovarian = test system: SK-OV-3 ovarian
SN12C renal = test system: SN12C renal
SNB-19 CNS = test system: SNB-19 CNS
SNB-75 CNS = test system: SNB-75 CNS
SR leukemia = test system: SR leukemia
SW-620 colon = test system: SW-620 colon
T-47D breast = test system: T-47D breast
TK-10 renal = test system: TK-10 renal
U251 CNS = test system: U251 CNS
UACC-257 melanoma = test system: UACC-257 melanoma
UACC-62 melanoma = test system: UACC-62 melanoma
UO-31 renal = test system: UO-31 renal

## CCCCCCCCCCCC(=O)NCc1ccc(OC(=O)CCCCCCCCCCC)c(OC)c1
786-0 renal
  TGI: > 100 µM
A498 renal
  TGI: > 100 µM
A549 NSCLC
  TGI: > 100 µM
ACHN renal
  TGI: > 100 µM
BT-549 breast
  TGI: > 100 µM
CAKI-1 renal
  TGI: > 100 µM
CCRF-CEM leukemia
  TGI: 11.6 µM
COLO 205 colon
  TGI: > 72.4 µM
DU-145 prostate
  TGI: > 100 µM
EKVX NSCLC
  TGI: > 100 µM
HCC-2998 colon
  TGI: > 100 µM
HCT-116 colon
  TGI: > 100 µM
HCT-15 colon
  TGI: > 100 µM
HL-60(TB) leukemia
  TGI: 37.8 µM
HOP-62 NSCLC
  TGI: > 100 µM
HOP-92 NSCLC
  TGI: > 100 µM
HS 578T breast
  TGI: > 100 µM
HT29 colon
  TGI: > 100 µM
IGROV1 ovarian
  TGI: > 57.3 µM
K-562 leukemia
  TGI: > 100 µM
KM12 colon
  TGI: > 100 µM
LOX IMVI melanoma
  TGI: > 100 µM
M14 melanoma
  TGI: > 100 µM
MALME-3M melanoma
  TGI: > 100 µM
MCF7 breast
  TGI: > 100 µM
MDA-MB-231 breast
  TGI: > 100 µM
MDA-MB-435
  TGI: > 100 µM
MDA-N
  TGI: > 100 µM
MOLT-4 leukemia
  TGI: > 100 µM
NCI-H226 lung
  TGI: > 100 µM
NCI-H23 lung
  TGI: > 100 µM
NCI-H460 lung
  TGI: > 100 µM
NCI-H522 lung
  TGI: 12.2 µM
NCI/ADR-RES ovarian
  TGI: > 100 µM
OVCAR-3 ovarian
  TGI: > 100 µM
OVCAR-4 ovarian
  TGI: > 100 µM
OVCAR-5 ovarian
  TGI: > 100 µM
OVCAR-8 ovarian
  TGI: > 100 µM
PC-3 prostate
  TGI: 97.9 µM
RPMI-8226 leukemia
  TGI: > 100 µM
RXF 393 renal
  TGI: > 100 µM
SF-268 CNS
  TGI: > 100 µM
SF-295 CNS
  TGI: > 100 µM
SF-539 CNS
  TGI: 16.7 µM
SK-MEL-2 melanoma
  TGI: > 100 µM
SK-MEL-28 melanoma
  TGI: > 100 µM
SK-MEL-5 melanoma
  TGI: > 100 µM
SK-OV-3 ovarian
  TGI: > 100 µM
SN12C renal
  TGI: > 100 µM
SNB-19 CNS
  TGI: > 100 µM
SNB-75 CNS
  TGI: > 100 µM
SR leukemia
  TGI: > 92.8 µM
SW-620 colon
  TGI: > 100 µM
T-47D breast
  TGI: > 100 µM
TK-10 renal
  TGI: > 100 µM
U251 CNS
  TGI: > 100 µM
UACC-257 melanoma
  TGI: > 100 µM
UACC-62 melanoma
  TGI: > 100 µM
UO-31 renal
  TGI: > 100 µM

## O=C(Nc1nnc(-c2ccc(Cl)cc2)o1)C(SC(=S)N1CCCCC1)c1ccccc1 (stereo not drawn)
786-0 renal
  TGI: > 78.2 µM
A498 renal
  TGI: 44.4 µM
A549 NSCLC
  TGI: 56.8 µM
ACHN renal
  TGI: 66.5 µM
BT-549 breast
  TGI: > 86.7 µM
CAKI-1 renal
  TGI: > 100 µM
CCRF-CEM leukemia
  TGI: > 43.5 µM
COLO 205 colon
  TGI: > 100 µM
DU-145 prostate
  TGI: > 100 µM
EKVX NSCLC
  TGI: 54.1 µM
HCC-2998 colon
  TGI: 76.8 µM
HCT-116 colon
  TGI: 34.8 µM
HCT-15 colon
  TGI: > 81.5 µM
HL-60(TB) leukemia
  TGI: 26.2 µM
HOP-62 NSCLC
  TGI: > 100 µM
HOP-92 NSCLC
  TGI: > 63.3 µM
HS 578T breast
  TGI: 85 µM
HT29 colon
  TGI: > 75.3 µM
IGROV1 ovarian
  TGI: > 65.6 µM
K-562 leukemia
  TGI: > 88 µM
KM12 colon
  TGI: > 100 µM
LOX IMVI melanoma
  TGI: > 50.6 µM
M14 melanoma
  TGI: 32.1 µM
MALME-3M melanoma
  TGI: 36.6 µM
MCF7 breast
  TGI: 49.9 µM
MDA-MB-231 breast
  TGI: 69.8 µM
MDA-MB-435
  TGI: 97.6 µM
MDA-N
  TGI: 37.2 µM
MOLT-4 leukemia
  TGI: 12.3 µM
NCI-H226 lung
  TGI: 85.2 µM
NCI-H23 lung
  TGI: > 76.8 µM
NCI-H460 lung
  TGI: 31.6 µM
NCI-H522 lung
  TGI: 37.7 µM
NCI/ADR-RES ovarian
  TGI: > 68.2 µM
OVCAR-3 ovarian
  TGI: > 72.6 µM
OVCAR-4 ovarian
  TGI: > 100 µM
OVCAR-5 ovarian
  TGI: 64.2 µM
OVCAR-8 ovarian
  TGI: > 100 µM
PC-3 prostate
  TGI: > 100 µM
RPMI-8226 leukemia
  TGI: 38.2 µM
RXF 393 renal
  TGI: > 75.9 µM
SF-268 CNS
  TGI: 61.1 µM
SF-295 CNS
  TGI: > 100 µM
SF-539 CNS
  TGI: > 84.2 µM
SK-MEL-2 melanoma
  TGI: 52.6 µM
SK-MEL-28 melanoma
  TGI: 56.3 µM
SK-MEL-5 melanoma
  TGI: 32.5 µM
SK-OV-3 ovarian
  TGI: > 100 µM
SN12C renal
  TGI: 41.6 µM
SNB-19 CNS
  TGI: > 100 µM
SNB-75 CNS
  TGI: > 100 µM
SR leukemia
  TGI: 16.2 µM
SW-620 colon
  TGI: > 100 µM
T-47D breast
  TGI: > 100 µM
TK-10 renal
  TGI: > 100 µM
U251 CNS
  TGI: > 100 µM
UACC-257 melanoma
  TGI: > 70.4 µM
UACC-62 melanoma
  TGI: 31.8 µM
UO-31 renal
  TGI: 27.8 µM
